From patent US7923465B2, “Cannabinoid receptor ligands, pharmaceutical compositions containing them, and process for their preparation” (priority 2005, dated 2011)
Where two headings read alike, the source gives them in different places.

Assays:
[1] = target: T1, CB1 (Rattus norvegicus, UniProt P20272); assay: GTPγS binding assay, CB1 functional assay in rat cerebellar membrane (Protocol VIII); type: biochemical; set-up: 10 μg rat cerebellum membrane; from tissue; host or cells: rat cerebellum membrane, prepared in-house; details: for activation at 1 µM: 1 h, read-out: Per Se % Stimulation; for activation at 1 µM / Per Se % Stimulation: GTPγS binding over basal, rat cerebellar membrane, tested at 1 uM; for inhibition at 1 µM / % Inhibition of WIN-55212-2 induced stimulation: GTPγS binding, tested at 1 uM in presence of 1 μM WIN 55,212-2; for inhibition at 1 µM: read-out: % Inhibition of WIN-55212-2 induced stimulation
T1 sequence (P20272 whole entry): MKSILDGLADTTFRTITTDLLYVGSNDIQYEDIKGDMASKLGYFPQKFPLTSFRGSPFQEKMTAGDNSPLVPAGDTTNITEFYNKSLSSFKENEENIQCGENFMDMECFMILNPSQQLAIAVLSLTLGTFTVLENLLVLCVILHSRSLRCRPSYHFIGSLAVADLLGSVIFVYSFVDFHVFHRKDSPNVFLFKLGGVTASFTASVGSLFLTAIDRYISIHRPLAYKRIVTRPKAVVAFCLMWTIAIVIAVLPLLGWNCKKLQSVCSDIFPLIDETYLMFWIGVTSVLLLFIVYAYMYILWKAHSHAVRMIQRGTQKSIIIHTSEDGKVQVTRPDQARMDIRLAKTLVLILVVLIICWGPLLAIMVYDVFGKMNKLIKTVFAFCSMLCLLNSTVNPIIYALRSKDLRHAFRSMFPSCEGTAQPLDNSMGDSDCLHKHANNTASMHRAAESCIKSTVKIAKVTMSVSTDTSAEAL
Procedure, shortened: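 Rat cerebellar membranes (10 μg) incubated 1 h at 30 °C with 0.2 nM [35S]GTPγS, 50 μM GDP, and compound at 1 μM or 300 nM, alone or with 1 μM WIN 55,212-2, in Tris/MgCl2/EGTA/NaCl pH 7.4. Filter-bound radioactivity counted; percent stimulation calculated against basal specific binding (nonspecific defined by 10 μM GTPγS).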

[2] = target: T1, CB1; assay: Rat CB1 receptor binding using brain membrane, [3H]SR141716A displacement (Protocol I); set-up: CB1 receptor present in a rat brain membrane preparation; from tissue; host or cells: rat brain membrane; inhibition: dose or concentration left out as unconfirmed; details: for inhibition: 1 h
[3] = target: T2, hCB1 (Homo sapiens, UniProt P21554); assay: Antagonism of CB1 receptors expressed in CHO cells, cAMP assay against CP 55,940 (Protocol IX.1); type: cell-based; set-up: expressed in transfected cells; host or cells: CHO (h-CB1/CHO, G418-selected); details: h-CB1/CHO cells, cAMP, vs 30 nM CP 55,940; for inhibition at 10 µM: read-out: hCB1 Antagonism
T2 sequence (P21554 whole entry): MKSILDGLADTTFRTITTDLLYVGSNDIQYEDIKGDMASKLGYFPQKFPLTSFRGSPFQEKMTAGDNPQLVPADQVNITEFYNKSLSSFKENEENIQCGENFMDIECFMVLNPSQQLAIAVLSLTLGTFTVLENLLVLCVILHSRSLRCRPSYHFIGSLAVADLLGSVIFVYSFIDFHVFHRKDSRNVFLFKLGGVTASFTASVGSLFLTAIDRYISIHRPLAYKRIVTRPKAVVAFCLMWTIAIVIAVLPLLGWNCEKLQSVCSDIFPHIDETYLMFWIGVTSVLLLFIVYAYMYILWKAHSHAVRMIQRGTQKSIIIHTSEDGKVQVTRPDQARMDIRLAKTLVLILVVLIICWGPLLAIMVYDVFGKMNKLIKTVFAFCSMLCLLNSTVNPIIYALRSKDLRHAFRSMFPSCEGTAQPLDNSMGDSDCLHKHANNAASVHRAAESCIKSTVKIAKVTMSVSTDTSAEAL
Experimental: (§1) IX. Assay for Determining Agonist and Antagonist Activity to CB1 and CB2 Receptors
1. Antagonism of CB1/CB2 Receptors Expressed in CHO Cells.
h-CB1/CHO or h-CB2/CHO cells were grown in HAM's F12 DMEM medium (Sigma) with 10% FBS (Hyclone), 1% penicillin-streptomycin solution and 400 μg/ml of G418 (Sigma). 5000 cells were seeded per well in a 96 well plate and incubated for 24 hours at 37° C. in 5% CO2. On the day of assay, cells were washed with warm Krebs buffer containing 0.1% fatty acid free (FAF) BSA (Sigma) and re-suspended in the same buffer containing 1 mM IBMX. […] At the end of incubation, cells were lysed using lysis reagent from the cAMP estimation kit and cAMP was quantitated by the chemiluminescence method described in the manufacturer's instructions (DiscoveRX). EC50 values were calculated from dose response curves by nonlinear regression analysis using PRISM software.

[4] = target: T2, hCB1; assay: In vitro binding assay using hCB1-CHO membranes, [3H]-CP-55,940 displacement (Protocol II); set-up: expressed in transfected cells; host or cells: CHO (hCB1-CHO, generated in-house)
Procedure, shortened: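 Incubated 1 h at 37° C, stopped by rapid vacuum filtration on PEI-precoated GF/B filters, bound radioactivity counted by liquid scintillation.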

[5] = target: T3, hCB2 (Homo sapiens, UniProt P34972); assay: Agonism of CB2 receptors expressed in CHO cells, forskolin cAMP assay (Protocol IX.2); type: cell-based; set-up: expressed in transfected cells; host or cells: CHO (h-CB2/CHO, G418-selected)
T3 sequence (P34972 whole entry): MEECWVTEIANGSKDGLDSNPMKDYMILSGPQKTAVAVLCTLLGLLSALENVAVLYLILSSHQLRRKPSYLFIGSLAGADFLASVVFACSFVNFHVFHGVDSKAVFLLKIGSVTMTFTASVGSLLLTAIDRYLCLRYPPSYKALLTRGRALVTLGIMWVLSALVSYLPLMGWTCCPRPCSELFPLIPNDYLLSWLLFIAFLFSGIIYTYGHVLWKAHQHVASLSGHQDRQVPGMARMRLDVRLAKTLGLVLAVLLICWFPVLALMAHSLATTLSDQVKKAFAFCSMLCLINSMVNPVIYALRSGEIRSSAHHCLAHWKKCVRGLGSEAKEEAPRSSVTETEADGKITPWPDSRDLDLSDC
Experimental: as §1
2. Agonism of CB1/CB2 Receptors Expressed in CHO Cells
h-CB1/CHO or h-CB2/CHO cells were grown in HAM's F12 DMEM medium (Sigma) with 10% FBS (Hyclone), 1% penicillin-streptomycin solution and 400 μg/ml of G418 (Sigma). 5000 cells were seeded per well in a 96 well plate and incubated for 24 hours at 37° C. in 5% CO2. On the day of assay, cells were washed with warm Krebs Buffer containing 0.1% fatty acid free (FAF) BSA (Sigma) and re-suspended in the same buffer containing 1 mM IBMX. Test compound or CP 55,940 as a reference compound (30 nM final concentration for CB1 testing and 10 μM of the same for CB2 testing) diluted in FFB+IBMX+Krebs buffer was added to the cells followed by forskolin addition (10 uM final concentration) and incubated for 30 minutes at room temperature. At the end of incubation, cells were lysed using lysis reagent from the cAMP estimation kit and cAMP was quantitated by chemiluminescence method described in the manufacturer's instructions (DiscoveRX). EC50 values were calculated from dose response curves by nonlinear regression analysis using PRISM software.

[6] = target: T3, hCB2; assay: In vitro binding assay using hCB2-CHO membranes, [3H]-CP-55,940 displacement (Protocol IV); set-up: expressed in transfected cells; host or cells: CHO (hCB2-CHO, generated in-house); details: for % Displacement Protocol IV: hCB2-CHO membranes, [3H]-CP-55,940 displacement
Procedure, shortened: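 Displacement of [3H]-CP-55,940 (0.75 nM) from membranes of CHO cells expressing human CB2 (25-50 μg) was measured in Tris-BSA buffer pH 7.4 with 5 mM MgCl2, 1 mM EDTA, 0.1% BSA, 1 h at 30 °C. Test compounds were at 300 nM final; nonspecific binding defined with 0.5 μM CP-55,940. Values are % displacement of specific binding.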

[7] = read-out: % Displacement Protocol I, rat brain membrane, [3H]SR141716A displacement
[8] = rat brain membrane, [3H]SR141716A displacement, read-out: % Displacement Protocol I
[9] = rat brain membrane, [3H]SR141716A displacement

SMILES	inhibition at 10 µM ([3]; at 10 uM)	melting point	% Displacement Protocol II [4]	% Displacement Protocol IV [6]	inhibition [2, 8]	Per Se % Stimulation [1]	% Inhibition of WIN-55212-2 induced stimulation [1]	further results
O=C(NC1CCCC1)c1nn(-c2ccc(Cl)cc2)c2c1C1CCC2C1 (stereo not shown) [Example 212, N(3)-Cyclopentyl-1-(4-chlorophenyl)-4,5,6,7-tetrahydro-1H-4,7-methano-indazole-3-carboxamide]	39.1%	176 to 178 °C						activation at 1 µM [1]: -13.8%; inhibition at 1 µM [1]: 97.4%; inhibition [2, 7]: 68.4%
CC(C)(C)NC(=O)c1nn(-c2ccc(F)cc2F)c2c1C1CCC2(C)C1(C)C (stereo not shown) [Example 408, N(3)-tert-Butyl-1-(2,4-difluorophenyl)-7,8,8-trim ethyl-4,5,6,7-tetrahydro-1H-methano-indazole-3-carboxamide]			24.93%	61.92%				IC50 ([5]; h-CB2/CHO cells, cAMP, read-out: hCB2 Agonism IC50): 16.1 nM
O=C(NN1CCCCC1)c1nn(-c2ccc(Cl)cc2Cl)c2c1C1CCC2C1 (stereo not shown) [Example 268, N(5)-piperidino-3-(2′,4′-dichlorophenyl)-3,4-diazatricyclo[5.2.1.0^2,6]deca-2(6),4-diene-5-carboxamide]					41%			activation at 1 µM [1]: 29.1%; inhibition at 1 µM [1]: 55.3%; inhibition at 1 µM ([3]; at 1 uM): 50.9%
CC(C)(C)c1ccc(NC(=O)c2nn(-c3ccc(Cl)cc3)c3c2C2CCC3C2)cc1 (stereo not shown) [Example 219, N(3)-(4-tert-Butylphenyl)-1-(4-chlorophenyl)-4,5,6,7-tetrahydro-1H-4,7-methano-indazole-3-carboxamide]	33.4%	76 to 78 °C			33.7%			
O=C(NC12CC3CC(CC(C3)C1)C2)c1nn(-c2ccc(Cl)cc2)c2c1C1CC3CC(C1)CC2C3 [Example 109, N(7)-(Adamantan-1-yl)-5-(4-chlorophenyl)-5,6-diazatetracyclo[7.3.1.1^3,11.0^4,8]tetradeca-4(8)-6-diene-7-carboxamide]			8.36%	63.05%				hCB1 Antagonism ([3]; at 10 uM): 61.64% at
O=C(NCc1ccc(F)cc1)c1nn(-c2ccc(Cl)cc2)c2c1C1CCC2C1 (stereo not shown) [Example 226, N(3)-(4-Fluorobenzyl)-1-(4-chlorophenyl)-4,5,6,7-tetrahydro-1H-4,7-methano-indazole-3-carboxamide]	71%	104 to 107 °C			38.4%			
O=C(NCc1ccccc1)c1nn(-c2ccc(Cl)cc2Cl)c2c1C1CC3CC(C1)CC2C3 [Example 179, N(7)-Benzyl-5-(2′,4′-dichlorophenyl)-5,6-diazatetracyclo[7.3.1.1^3,11.0^4,8]tetradeca-4(8)-6-diene-7-carboxamide]			30.88%	18.21%		7.8%	89.7%	% Displacement Protocol I [2, 9]: 48%
O=C(NNc1ccc(F)cc1F)c1nn(-c2ccc(Cl)cc2)c2c1C1CCC2C1 (stereo not shown) [Example 235, N(3)-[(2,4-Difluorophenyl)amino]-1-(4-chlorophenyl)-4,5,6,7-tetrahydro-1H-4,7-methano-indazole-3-carboxamide]	59.9%	118 to 120 °C			46.8%			
Cl.O=C(NNc1ccccc1)c1nn(-c2ccc(Cl)cc2)c2c1C1CC3CC(C1)CC2C3 [Example 122, N(7)-(N′-phenylamino)-5-(4-chlorophenyl)-5,6-diazatetracyclo[7.3.1.1^3,11.0^4,8]tetradeca-4(8),6-diene-7-carboxamide hydrochloride]	40.7%					1.2%	59.3%	inhibition [2, 7]: 66.4%
O=C(NN1CCCCC1)c1nn(-c2ccccc2Cl)c2c1C1CC3CC(C1)CC2C3 [Example 184, N(7)-piperidino-5-(2′-chlorophenyl)-5,6-diazatetracyclo[7.3.1.1^3,11.0^4,8]tetradeca-4(8)-6-diene-7-carboxamide]			3.24%	8.76%		9.5%	75.9%	% Displacement Protocol I [2, 9]: 41%
O=C(NC1CCCCC1)c1nn(-c2ccccc2Cl)c2c1C1CC3CC(C1)CC2C3 [Example 183, N(7)-cyclohexyl-5-(2-chlorophenyl)-5,6-diazatetracyclo[7.3.1.1^3,11.0^4,8]tetradeca-4(8)-6-diene-7-carboxamide]			17.24%	18.23%		13.0%	72.5%	% Displacement Protocol I [2, 9]: 45.9%
O=C(NC1CCCCC1)c1nn(-c2ccc(Cl)cc2)c2c1C1CC3CC(C1)CC2C3 [Example 106, N(7)-Cyclohexyl-5-(4-chlorophenyl)-5,6-diazatetracyclo[7.3.1.1^3,11.0^4,8]tetradeca-4(8),6-diene-7-carboxamide]		162 °C						activation at 1 µM [1]: -10%; inhibition at 1 µM [1]: 65.3%; hCB2 Agonism ([5]; concentration not given): 0%; inhibition [2, 7]: 78.6%; inhibition at 0.3 µM ([6]; 1 h, read-out: % Displacement Protocol IV): 75.1%
